From US20060046976A1, “Method for increasing the bone mineral density and bone micro-architecture or connectivity of a mammal using N-acylated glucosamines” (priority 2004, published 2006)

Key:
SCW-arthritis rats = experiment: Three-dimensional isosurface of tibia (bone erosion), SCW-arthritis rats; type: in vivo, Lewis type rats; conditions: GlcNBu treated, especially high dose
Excerpt: In this experiment performed and described herein, there were four groups of Lewis type rats, consisting of eight (8) animals in each group. Lewis type rats had experimental arthritis induced by a single intra-peritoneal injection of streptococcal cell wall antigen (SCW). This type of arthritis has an acute and chronic phase and affects mostly the distal joints in the hind limbs of the animals, and, less so, the knees and hips. Groups 1-3, inclusive, had inflammatory arthritis induced. The compound used in the experiment was used to supplement normal rat chow feed on a daily basis. Feed and water were unrestricted. […] All the dissected femurs and tibiae were scanned with dual energy x-ray absorptiometry (DXA) were measured at the distal femur, and proximal tibia using a user defined region of interest (ROI). • Micro-CT imaging protocol. […] The reconstructed tibia images were analyzed with MicroView 2.0 software (GE Healthcare, London, ON) in two and three dimensions. • Three-dimensional trabecular bone measurements. […] On 3D analysis, the tissue volume (3D-TV, mm3) and trabecular bone volume (3D-BV, mm3) were measured directly, and the fractional trabecular bone volume (3D-BV/TV, %) was calculated. […]

[1] = test system: Insulin-like Growth factor I (IGF-1); experiment: Plasma IGF-1 concentration by commercial immunological method; type: in vivo, rat; conditions: end of 6 months; ovariectomised GlcNBu fed rats compared to GlcNBu fed non-ovariectomised rats; p=0.044
Description: Sixteen ovariectomised rats (Charles River Laboratories), approximately 200 g in weight, were randomized into two groups. The control group received 200 mg of glucose, by mouth as single daily doses and the GlcNBu-treated group received 200 mg of GlcNBu by mouth, as single daily doses, for a total period of six (6) months. A similar group of non-ovariectomised animals was fed with GlcNBu or glucose at the same doses. The feeding of the compounds was done in small amounts of peanut butter which was very acceptable to the rats, which were allowed free access to water and rat chow. The animals had the BMDs of the femurs (total or global BMD) and the lumbar spines were estimated at baseline and then at, approximately 2, 4 and 6 months. Consistent position of the femurs was assured with a pre-determined grid. A Hologic 4500 DXA machine, with small animal software, was employed for the study. The animals were lightly anesthetized for each measurement.
At the end of the experiment, the animals were sacrificed, plasma was collected by cardiac puncture, and the femurs removed, fully dissected from adherent tissue and the wet weight was determined. The concentrations of Insulin-like Growth factor I (IGF-1) in the plasma, obtained at the end of the experiment, were determined by a commercial immunological method.

## CCCC(=O)N[C@H]1C(O)O[C@H](CO)[C@@H](O)[C@@H]1O (stereo partly drawn) [GlcNBu, N-butyryl-D-glucosamine]
SCW-arthritis rats
  bone erosion at the joint margin (isosurfaces): effectively protects bone from further erosion
[1]
  plasma IGF-1 concentration: significant difference
